Reference: patent US20240182431A1, “NEW CONTRAST AGENT FOR USE IN MAGNETIC RESONANCE IMAGING” (Bayer Aktiengesellschaft, priority 2021, published 2024)

Assay: Partition coefficient (logP butanol/buffer)
Type: physicochemical
[1] = 1-butanol / 50 mM Tris-HCl, pH 7.4, room temperature

SMILES: CCOCCOCCOc1ccc(CC(C(=O)O)N2CCN(CC(=O)[O-])CCN(C(C)C(=O)[O-])CCN(CC(=O)[O-])CC2)cc1.[Gd+3] (single isomer, unassigned) [Example 6, gadolinium 2-[7-(1-carboxy-2-{4-[2-(2-ethoxyethoxy)ethoxy]phenyl}ethyl)-4,10-bis(carboxylatomethyl)-1,4,7,10-tetraazacyclododecan-1-yl]propanoate]
- Log P (butanol/buffer) [1]: −1.44

SMILES: CCOCCOCCOc1ccc(CC(C(=O)O)N2CCN(CC(=O)[O-])CCN(CC(=O)[O-])CCN(CC(=O)[O-])CC2)cc1.[Gd+3] (stereo not drawn) [Example 2, gadolinium 2,2′,2″-{10-[1-carboxy-2-{4-[2-(2-ethoxyethoxy)ethoxy]phenyl}ethyl]-1,4,7,10-tetraazacyclododecane-1,4,7-triyl}triacetate]
- Log P (butanol/buffer) [1]: −1.63

SMILES: O=C([O-])CN1CCN(CC(=O)[O-])CCN(C(Cc2ccc(OCC(F)(F)C(F)F)cc2)C(=O)O)CCN(CC(=O)[O-])CC1.[Gd+3] (stereo not drawn) [Example 46, gadolinium 2,2′,2″-(10-{1-carboxy-2-[4-(2,2,3,3-tetrafluoropropoxy)phenyl]ethyl}-1,4,7,10-tetraazacyclododecane-1,4,7-triyl)triacetate]
- Log P (butanol/buffer) [1]: −0.57

SMILES: CCOCCOCCOc1ccc(CCC[C@@H](C(=O)O)N2CCN([C@@H](CO)C(=O)[O-])CCN([C@H](CO)C(=O)[O-])CCN([C@@H](CO)C(=O)[O-])CC2)cc1.[Gd+3] [Example 35, gadolinium (2S,2′S)-2,2′-{4-[(1S)-1-carboxy-4-{4-[2-(2-ethoxyethoxy)ethoxy]phenyl}butyl]-10-[(1R)-1-carboxylato-2-hydroxyethyl]-1,4,7,10-tetraazacyclododecane-1,7-diyl}bis(3-hydroxypropanoate)]
- Log P (butanol/buffer) [1]: −1.02

SMILES: CCOc1ccc(CCCC[C@@H](C(=O)O)N2CCN(CC(=O)[O-])CCN(CC(=O)[O-])CCN(CC(=O)[O-])CC2)cc1.[Gd+3] [Example 27, gadolinium 2,2′,2″-{10-[(1S)-1-carboxy-5-(4-ethoxyphenyl)pentyl]-1,4,7,10-tetraazacyclo-dodecane-1,4,7-triyl}triacetate]
- Log P (butanol/buffer) [1]: −0.41

SMILES: CCCC(C(=O)[O-])N1CCN(CC(=O)[O-])CCN(C(Cc2ccc(OCC)cc2)C(=O)O)CCN(CC(=O)[O-])CC1.[Gd+3] (stereo not drawn) [Example 30, gadolinium 2-{7-[1-carboxy-2-(4-ethoxyphenyl)ethyl]-4,10-bis(carboxylatomethyl)-1,4,7,10-tetraazacyclododecan-1-yl}pentanoate]
- Log P (butanol/buffer) [1]: −0.60

SMILES: CCOCCOCCOCCOc1ccc(C[C@@H](C(=O)O)N2CCN(CC(=O)[O-])CCN(CC(=O)[O-])CCN(CC(=O)[O-])CC2)c(OCCOCCOCCOCC)c1.[Gd+3] [Example 40, gadolinium 2,2′,2″-{10-[(1S)-2-(2,4-bis{2-[2-(2-ethoxyethoxy)ethoxy]ethoxy}phenyl)-1-carboxyethyl]-1,4,7,10-tetraazacyclododecane-1,4,7-triyl}triacetate]
- Log P (butanol/buffer) [1]: −1.43

SMILES: CCOCCOCCOc1ccc(CC(C(=O)O)N2CCN(CC(=O)[O-])CCN(C(C)C(=O)[O-])CCN(CC(=O)[O-])CC2)cc1.[Gd+3] (single isomer, unassigned) [Example 5, gadolinium 2-[7-(1-carboxy-2-{4-[2-(2-ethoxyethoxy)ethoxy]phenyl}ethyl)-4,10-bis(carboxylatomethyl)-1,4,7,10-tetraazacyclododecan-1-yl]propanoate]
- Log P (butanol/buffer) [1]: −1.52

SMILES: CCOCCOc1ccc(CC(C(=O)O)N2CCN(CC(=O)[O-])CCN(C(CC)C(=O)[O-])CCN(CC(=O)[O-])CC2)cc1.[Gd+3] (single isomer, unassigned) [Example 7, gadolinium 2-[7-{1-carboxy-2-[4-(2-ethoxyethoxy)phenyl]ethyl}-4,10-bis(carboxylatomethyl)-1,4,7,10-tetraazacyclododecan-1-yl]butanoate]
- Log P (butanol/buffer) [1]: −1.09

SMILES: CCOCCOCCOc1ccc(CC(C(=O)O)N2CCN(CC(=O)[O-])CCN(CC(=O)[O-])CCN(CC(=O)[O-])CC2)cn1.[Gd+3] (stereo not drawn) [Example 16, gadolinium 2,2′,2″-{10-[1-carboxy-2-{6-[2-(2-ethoxyethoxy)ethoxy]pyridin-3-yl}ethyl]-1,4,7,10-tetraazacyclododecane-1,4,7-triyl}triacetate]
- Log P (butanol/buffer) [1]: −1.81

SMILES: CCCCOc1ccc(CC(C(=O)O)N2CCN(CC(=O)[O-])CCN(CC(=O)[O-])CCN(CC(=O)[O-])CC2)cc1.[Gd+3] (stereo not drawn) [Example 14, gadolinium 2,2′,2″-{10-[2-(4-butoxyphenyl)-1-carboxyethyl]-1,4,7,10-tetraazacyclododecane-1,4,7-triyl}triacetate]
- Log P (butanol/buffer) [1]: −0.38

SMILES: CCOCCOc1ccc(CC(C(=O)O)N2CCN(CC(=O)[O-])CCN(CC(=O)[O-])CCN(CC(=O)[O-])CC2)cc1.[Gd+3] (stereo not drawn) [Example 32, gadolinium 2,2′,2″-(10-{1-carboxy-2-[4-(2-ethoxyethoxy)phenyl]ethyl}-1,4,7,10-tetraazacyclododecane-1,4,7-triyl)triacetate]
- Log P (butanol/buffer) [1]: −1.53

SMILES: CCCCOc1ccc(CCC[C@@H](C(=O)O)N2CCN(CC(=O)[O-])CCN(CC(=O)[O-])CCN(CC(=O)[O-])CC2)cc1.[Gd+3] [Example 31, gadolinium 2,2′,2″-{10-[(1S)-4-(4-butoxyphenyl)-1-carboxybutyl]-1,4,7,10-tetraazacyclododecane-1,4,7-triyl}triacetate]
- Log P (butanol/buffer) [1]: 0.20

SMILES: O=C([O-])CN1CCN(C(Cc2ccc(OCC(F)(F)C(F)F)cc2)C(=O)O)CCN(CC(=O)[O-])CCN([C@@H](CO)C(=O)[O-])CC1.[Gd+3] (mixture of isomers) [Example 33, gadolinium (2S)-2-[4,10-bis(carboxylatomethyl)-7-{1-carboxy-2-[4-(2,2,3,3-tetrafluoropropoxy)phenyl]ethyl}-1,4,7,10-tetraazacyclododecan-1-yl]-3-hydroxypropanoate]
- Log P (butanol/buffer) [1]: −0.55

SMILES: CCOCCOCCOc1ccc(CCC[C@@H](C(=O)O)N2CCN(C(CCO)C(=O)[O-])CCN(C(CCO)C(=O)[O-])CCN(C(CCO)C(=O)[O-])CC2)cc1.[Gd+3] (mixture of isomers) [Example 36, gadolinium-2,2′-{4-[(1S)-1-carboxy-4-{4-[2-(2-ethoxyethoxy)ethoxy]phenyl}butyl]-10-[1-carboxylato-3-hydroxypropyl]-1,4,7,10-tetraazacyclododecane-1,7-diyl}bis(4-hydroxybutanoate)]
- Log P (butanol/buffer) (pH 7.4): −1.08

SMILES: CCOCCOCCOc1ccc(CC(C(=O)O)N2CCN(CC(=O)[O-])CCN(CC(=O)[O-])CCN(CC(=O)[O-])CC2)nc1.[Gd+3] (stereo not drawn) [Example 23, gadolinium 2,2′,2″-{10-[1-carboxy-2-{5-[2-(2-ethoxyethoxy)ethoxy]pyridin-2-yl}ethyl]-1,4,7,10-tetraazacyclododecane-1,4,7-triyl}triacetate]
- Log P (butanol/buffer) [1]: −1.94

SMILES: CCOCCOc1ccc(CC(C(=O)O)N2CCN(CC(=O)[O-])CCN(C(CC)C(=O)[O-])CCN(CC(=O)[O-])CC2)cc1.[Gd+3] (single isomer, unassigned) [Example 8, gadolinium 2-[7-{1-carboxy-2-[4-(2-ethoxyethoxy)phenyl]ethyl}-4,10-bis(carboxylatomethyl)-1,4,7,10-tetraazacyclododecan-1-yl]butanoate]
- Log P (butanol/buffer) [1]: −1.04

SMILES: CCOCCOCCOCCOc1ccc(C[C@@H](C(=O)O)N2CCN(CC(=O)[O-])CCN(CC(=O)[O-])CCN(CC(=O)[O-])CC2)cc1.[Gd+3] [Example 11, gadolinium 2,2′,2″-{10-[(1S)-1-carboxy-2-(4-{2-[2-(2-ethoxyethoxy)ethoxy]ethoxy}phenyl)ethyl]-1,4,7,10-tetraazacyclododecane-1,4,7-triyl}triacetate]
- Log P (butanol/buffer) [1]: −1.68

SMILES: CCOCCOCCOCCOc1ccc(C[C@H](C(=O)O)N2CCN(CC(=O)[O-])CCN(CC(=O)[O-])CCN(CC(=O)[O-])CC2)cc1.[Gd+3] [Example 12, gadolinium 2,2′,2″-{10-[(1R)-1-carboxy-2-(4-{2-[2-(2-ethoxyethoxy)ethoxy]ethoxy}phenyl)ethyl]-1,4,7,10-tetraazacyclododecane-1,4,7-triyl}triacetate]
- Log P (butanol/buffer) [1]: −1.68

SMILES: CCOCCOCCOCCOc1ccc(CC(C(=O)O)N2CCN(CC(=O)[O-])CCN(CC(=O)[O-])CCN(CC(=O)[O-])CC2)cc1.[Gd+3] (stereo not drawn) [Example 10, gadolinium 2,2′,2″-{10-[1-carboxy-2-(4-{2-[2-(2-ethoxyethoxy)ethoxy]ethoxy}phenyl)ethyl]-1,4,7,10-tetraazacyclododecane-1,4,7-triyl}triacetate]
- Log P (butanol/buffer) [1]: −1.70

SMILES: CCOCCOCCOCCOc1ccc(CC(C(=O)O)N2CCN(CC(=O)[O-])CCN(C(COC)C(=O)[O-])CCN(CC(=O)[O-])CC2)cc1.[Gd+3] (stereo not drawn) [Example 13, gadolinium 2-{7-[1-carboxy-2-(4-{2-[2-(2-ethoxyethoxy)ethoxy]ethoxy}phenyl)ethyl]-4,10-bis(carboxylatomethyl)-1,4,7,10-tetraazacyclododecan-1-yl}-3-methoxypropanoate]
- Log P (butanol/buffer) [1]: −1.53

SMILES: CCOCCOCCOc1cc(CC(C(=O)O)N2CCN(CC(=O)[O-])CCN(CC(=O)[O-])CCN(CC(=O)[O-])CC2)cc(OCCOCCOCC)c1.[Gd+3] (stereo not drawn) [Example 39, gadolinium 2,2′,2″-{10-[2-{3,5-bis[2-(2-ethoxyethoxy)ethoxy]phenyl}-1-carboxyethyl]-1,4,7,10-tetraazacyclododecane-1,4,7-triyl}triacetate]
- Log P (butanol/buffer) [1]: −1.32

SMILES: CCCCOc1ccc(CCCC[C@@H](C(=O)O)N2CCN([C@@H](CO)C(=O)[O-])CCN([C@@H](CO)C(=O)[O-])CCN([C@@H](CO)C(=O)[O-])CC2)cc1.[Gd+3] [Example 9, gadolinium (2S,2′S,2″S)-2,2′,2″-{10-[(1S)-5-(4-butoxyphenyl)-1-carboxypentyl]-1,4,7,10-tetraazacyclododecane-1,4,7-triyl}tris(3-hydroxypropanoate)]
- Log P (butanol/buffer) [1]: 0.26

SMILES: CCOCCOCCOc1ccc(CC(C(=O)[O-])N2CCN(CC(=O)[O-])CCN(C(CC)C(=O)O)CCN(CC(=O)[O-])CC2)cc1.[Gd+3] (stereo not drawn) [Example 43, gadolinium-2-{4,10-bis(carboxylatomethyl)-7-[1-carboxypropyl]-1,4,7,10-tetraazacyclododecan-1-yl}-3-{4-[2-(2-ethoxyethoxy)ethoxy]phenyl}propanoate]
- Log P (butanol/buffer) [1]: −1.19
